Experimental data as given in patent US20230165785A1, “METHOD FOR OBTAINING AN EXTRACT OF SANDALWOOD, COMPOSITIONS COMPRISING SAME AND COSMETIC USES THEREOF” (ISP INVESTMENTS LLC, priority 2020, published 2023).

Columns and labels:
[1] = tested on: filaggrin; experiment: Filaggrin expression by indirect immunofluorescence on skin biopsies; type: cell-based, human; conditions: positive control, concentration not given
Method: Filaggrin is a protein involved in the cohesion and maintenance of the hydration of the upper layer of the epidermis, which is essential for maintaining the homeostasis of the skin barrier.
Filaggrin expression was assessed by indirect immunofluorescence on skin biopsies, pre-treated by topical application of the solubilised extract of depleted sandalwood from Example 1, diluted in 0.1% octyldodecanol (volume/volume percentages, twice daily), for 48 hours. In parallel, biopsies were treated with a sandalwood essential oil of Example 3 from the same geographical site and tested under the same conditions. Control biopsies incubated in parallel under the same conditions were given the placebo (octyldodecanol). After incubation, the biopsies were fixed and embedded in paraffin for histological sections. Detection of filaggrin was performed by incubation with anti-filaggrin antibody (Santa Cruz). After one and a half hours of incubation followed by rinses, the sections were incubated in the presence of the anti-mouse secondary antibody coupled to a fluorophore (Alexa Fluor® 488, Invitrogen). The sections were then examined under an Epi-fluorescence microscope (Zeiss Axiovert 200M microscope). Filaggrin expression was then observed and quantified by image analysis (Volocity® image analysis software, Improvision).

[2] = tested on: olfactory receptor OR2AT4; experiment: OR2AT4 expression by indirect immunofluorescence on human skin biopsies; type: cell-based
Method: OR2AT4 expression was assessed by indirect immunofluorescence on skin biopsies, pre-treated by topical application of the solubilised extract of depleted sandalwood of Example 1 at 0.1%, 0.5% and 1% (volume/volume percentages), for 48 hours (twice daily). For this purpose, the solubilised extract of depleted sandalwood from Example 1 was diluted in 0.1%, 0.5% and 1% (volume/volume percentages) octyldodecanol. Other biopsies were given similar dilutions of sandalwood essential oil from Example 3 or a synthetic analogue Sandalore. Control biopsies incubated in parallel under the same conditions received placebo (octyldodecanol). After incubation, the biopsies were fixed and embedded in paraffin for histological sections. Detection of the OR2AT4 receptor was performed by incubation with anti-OR2AT4 antibody (Novus). After one and a half hours of incubation followed by rinses, the sections are incubated in the presence of the anti-rabbit secondary antibody coupled to a fluorophore (Alexa Fluor® 488, Invitrogen). The sections were then examined under an Epi-fluorescence microscope (Zeiss Axiovert 200M microscope). OR2AT4 expression was then observed and quantified by image analysis (Volocity® image analysis software, Improvision).

Row | OR2AT4 expression increase ([2]; 1% (v/v) in octyldodecanol, topical, twice daily, 48 hours, vs placebo) [%] | OR2AT4 expression increase ([2]; 3% topical application) [%] | OR2AT4 expression increase ([2]; 5% topical application) [%] | effect on OR2AT4 expression ([2]; application of less than 1%) | Compound | increase in filaggrin [1]
1 | – | – | – | – | O=C(O[C@@H]1Cc2c(O)cc(O)cc2O[C@@H]1c1cc(O)c(O)c(O)c1)c1cc(O)c(O)c(O)c1 [EGCG, epigallocatechin gallate] | +27%
2 | 28 | 72 | 71 | does not seem to have any effect | CC1=CCC(CCC(C)C(C)O)C1(C)C (centres unmarked) [Sandalore] | –
